Measurements: PubChem BioAssay (NCI)
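Five concentrations, 48 hours, 96-well plates. TGI marks complete inhibition of growth.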

What was measured:
Test in all cases: NCI tumour cell line growth inhibition, 48 h
786-0 renal = tested on: 786-0 renal
A498 renal = tested on: A498 renal
A549 NSCLC = tested on: A549 NSCLC
ACHN renal = tested on: ACHN renal
CAKI-1 renal = tested on: CAKI-1 renal
CCRF-CEM leukemia = tested on: CCRF-CEM leukemia
COLO 205 colon = tested on: COLO 205 colon
DMS 114 small cell lung = tested on: DMS 114 small cell lung
DMS 273 small cell lung = tested on: DMS 273 small cell lung
EKVX NSCLC = tested on: EKVX NSCLC
HCC-2998 colon = tested on: HCC-2998 colon
HCT-116 colon = tested on: HCT-116 colon
HCT-15 colon = tested on: HCT-15 colon
HL-60(TB) leukemia = tested on: HL-60(TB) leukemia
HOP-18 NSCLC = tested on: HOP-18 NSCLC
HOP-62 NSCLC = tested on: HOP-62 NSCLC
HOP-92 NSCLC = tested on: HOP-92 NSCLC
HT29 colon = tested on: HT29 colon
IGROV1 ovarian = tested on: IGROV1 ovarian
K-562 leukemia = tested on: K-562 leukemia
KM12 colon = tested on: KM12 colon
KM20L2 colon = tested on: KM20L2 colon
LOX IMVI melanoma = tested on: LOX IMVI melanoma
LXFL 529 NSCLC = tested on: LXFL 529 NSCLC
M14 melanoma = tested on: M14 melanoma
M19-MEL melanoma = tested on: M19-MEL melanoma
MALME-3M melanoma = tested on: MALME-3M melanoma
MOLT-4 leukemia = tested on: MOLT-4 leukemia
NCI-H226 lung = tested on: NCI-H226 lung
NCI-H23 lung = tested on: NCI-H23 lung
NCI-H460 lung = tested on: NCI-H460 lung
NCI-H522 lung = tested on: NCI-H522 lung
OVCAR-3 ovarian = tested on: OVCAR-3 ovarian
OVCAR-5 ovarian = tested on: OVCAR-5 ovarian
OVCAR-8 ovarian = tested on: OVCAR-8 ovarian
RPMI-8226 leukemia = tested on: RPMI-8226 leukemia
RXF 393 renal = tested on: RXF 393 renal
RXF-631 renal = tested on: RXF-631 renal
SF-268 CNS = tested on: SF-268 CNS
SF-295 CNS = tested on: SF-295 CNS
SF-539 CNS = tested on: SF-539 CNS
SK-MEL-2 melanoma = tested on: SK-MEL-2 melanoma
SK-MEL-28 melanoma = tested on: SK-MEL-28 melanoma
SK-MEL-5 melanoma = tested on: SK-MEL-5 melanoma
SK-OV-3 ovarian = tested on: SK-OV-3 ovarian
SN12C renal = tested on: SN12C renal
SNB-19 CNS = tested on: SNB-19 CNS
SNB-75 CNS = tested on: SNB-75 CNS
SNB-78 CNS = tested on: SNB-78 CNS
SR leukemia = tested on: SR leukemia
SW-620 colon = tested on: SW-620 colon
TK-10 renal = tested on: TK-10 renal
U251 CNS = tested on: U251 CNS
UACC-257 melanoma = tested on: UACC-257 melanoma
UACC-62 melanoma = tested on: UACC-62 melanoma
UO-31 renal = tested on: UO-31 renal
XF 498 CNS = tested on: XF 498 CNS

## COc1ccc(C2CC(C)=Nc3c([nH]c(=S)[nH]c3=O)N2)cc1 (configuration not stated)
786-0 renal
  TGI: 31.2 µM
A498 renal
  TGI: 36.9 µM
A549 NSCLC
  TGI: 40.4 µM
ACHN renal
  TGI: 36.1 µM
CAKI-1 renal
  TGI: 65 µM
CCRF-CEM leukemia
  TGI: 54.4 µM
COLO 205 colon
  TGI: 32.7 µM
DMS 114 small cell lung
  TGI: 38.8 µM
DMS 273 small cell lung
  TGI: 35.9 µM
EKVX NSCLC
  TGI: 50.2 µM
HCC-2998 colon
  TGI: 30.3 µM
HCT-116 colon
  TGI: 30.1 µM
HCT-15 colon
  TGI: 33 µM
HL-60(TB) leukemia
  TGI: 40.1 µM
HOP-18 NSCLC
  TGI: > 100 µM
HOP-62 NSCLC
  TGI: 68.5 µM
HOP-92 NSCLC
  TGI: > 100 µM
HT29 colon
  TGI: 47.3 µM
IGROV1 ovarian
  TGI: 34.5 µM
K-562 leukemia
  TGI: 34.4 µM
KM12 colon
  TGI: 32 µM
KM20L2 colon
  TGI: 31.7 µM
LOX IMVI melanoma
  TGI: 34.4 µM
LXFL 529 NSCLC
  TGI: 30.5 µM
M14 melanoma
  TGI: 37.4 µM
M19-MEL melanoma
  TGI: 31 µM
MALME-3M melanoma
  TGI: > 100 µM
MOLT-4 leukemia
  TGI: 67.4 µM
NCI-H226 lung
  TGI: 44.6 µM
NCI-H23 lung
  TGI: 55.6 µM
NCI-H460 lung
  TGI: 33.3 µM
NCI-H522 lung
  TGI: 30.1 µM
OVCAR-3 ovarian
  TGI: 55.2 µM
OVCAR-5 ovarian
  TGI: 56.7 µM
OVCAR-8 ovarian
  TGI: 35.7 µM
RPMI-8226 leukemia
  TGI: 50.3 µM
RXF 393 renal
  TGI: 34.7 µM
RXF-631 renal
  TGI: > 100 µM
SF-268 CNS
  TGI: > 100 µM
SF-295 CNS
  TGI: 48.5 µM
SF-539 CNS
  TGI: 50.8 µM
SK-MEL-2 melanoma
  TGI: > 100 µM
SK-MEL-28 melanoma
  TGI: 60.5 µM
SK-MEL-5 melanoma
  TGI: 32.5 µM
SK-OV-3 ovarian
  TGI: 38.2 µM
SN12C renal
  TGI: 36.7 µM
SNB-19 CNS
  TGI: 37.5 µM
SNB-75 CNS
  TGI: 70.1 µM
SNB-78 CNS
  TGI: > 100 µM
SR leukemia
  TGI: 65 µM
SW-620 colon
  TGI: 19 µM
TK-10 renal
  TGI: 58.1 µM
U251 CNS
  TGI: 32.4 µM
UACC-257 melanoma
  TGI: 33.9 µM
UACC-62 melanoma
  TGI: 32.1 µM
UO-31 renal
  TGI: 32.8 µM
XF 498 CNS
  TGI: 59.4 µM
